Common to all, as to assay type: cell-based, Pseudomonas aeruginosa
The subject of assay [1] is nonswarming P. aeruginosa mutant rhlA. Kind of assay: Swarming motility of nonswarming rhlA mutant on soft agar (reactivation / agonist assay). As to conditions: 85 μM in soft agar (0.5%), 24 h. The text has this:
Using nonswarming mutant to screen for swarming agonists and wild type P. aeruginosa for swarming antagonists. The transposon mutant, rhlA (genotype, rhlA-E08:ISphoA/hah)39 of P. aeruginosa (PAO1), that impairs the gene that is responsible for synthesizing rhamnolipids is completely incapable of a swarming motility. […] Based on this inference, a rhlA mutant was used in a swarming experiment to screen the saccharide-hydrocarbons for agonists that can reactivate the swarming motility of rhlA.
(§1) Swarm agar plates were based on M8 medium supplemented with 0.2% glucose, 0.5% casamino acid, 1 mM MgSO4 and […]. 17 For each set of experiment all the swarm plates were poured from same batch of agar and allowed to dry for 1 h before inoculation of bacteria. Bacterial culture (3 μl) (wild type PAO1 or rhlA mutant) with OD600 between […] was inoculated on the solidified agar plates. Swarm agar plates were incubated at 37° C. for 12 h and then incubated for additional 12 h at room temp. Chronological images of swarm plates were taken using a camera. To measure swarming area, sizes of the petridish in all swarming images were adjusted to a pre-assigned diameter and images were printed on copying paper (Xerox-business 4200). Weight of a 1 cm^2 copy paper square was roughly ˜8.0 mg. swarming images on the copy paper were cut and weighed, the swarm area was calculated by dividing the weight of image by weight of 1 cm^2 square (8 mg).
(§2) Swarm agar plates were made using M8 medium supplemented with 0.2% glucose, 0.5% casamino acid, 1 mM MgSO4 and solidified with 0.5% Bacto agar. 24 Bacterial culture with OD600 between 0.4 to 0.6 was inoculated as 3 μl aliquots. Swarm agar plates were incubated at 37° C. for 12 h and then incubated for additional 12 h at rt. For each set of experiment all the swarm plates were poured from same batch of agar and allowed to dry for 1 h before inoculation of bacteria.

A further assay concerns wild type PAO1. In words: Swarming motility of wild type PAO1 on soft agar (antagonist assay). Here is the method: In contrast, the wild type P. aeruginosa produces the rhamnolipids and is capable of swarming on soft agar gel (˜0.5% agar). […] We note that saccharide hydrocarbons may also promote the swarming motility, but such promotions are less unambiguous than the inhibition for wild type PAO1. Such promotion will be unambiguous in the agonist assay using the nonswarming mutant rhlA.
as §1, §2

A further assay deals with PAO1 biofilm. In words: Crystal violet based static biofilm inhibition assay, DSHs in LB media (Examples 2 and 4). Here is the method: The ability of DSHs was tested to inhibit Pseudomonas aeruginosa adhesion, biofilm and to disperse pre-formed biofilm. To quantify the amount of PAO1/EGFP attached on the surface of micro titer plates with or without the synthesized DSHs, fluorescence emitted by green fluorescent proteins (GFP) was quantified (see supporting info for details). Crystal violet (CV) based static biofilm assay (see supporting info) was used to screen the anti-biofilm potencies of all synthesized agents. Both surface attached (SA) (FIG. 17) and total (SA+air-liquid interface) biofilm of P. aeruginosa was quantified. […] CV assays were also used to quantify the amount of P. aeruginosa biofilm remaining after dispersion experiments (FIG. 19). Initially, all agents were screen for anti-biofilm activities (both inhibition and dispersion) at 160 μM. […] All reported biofilm inhibition results are an average of 4 identical wells.
The effect that DSHs have on the adhesion of PAO1-EGFP on polystyrene surface (microtiter plate) was also examined. PAO1-EGFP is a P. aeruginosa strain that constitutively expresses green fluorescent protein. In the adhesion assays, PAO1-EGFP was grown in microtiter plate for 24-hours in LB-media with (160 μM) or without DSHs. After 24-hours, the fluorescent signal obtained from surface adhered PAO1-EGFP was measured. Percent reduction in fluorescence was calculated by comparing fluorescent signal from PAO1-EGFP grown in LB-media with the signal from wells that had DSHs (FIG. 29A). To study the effect of DSHs on biofilm formation, Pseudomonas aeruginosa (PAO1) was grown in LB-media with (160 μM) or without DSHs at 37° C. under static conditions within wells of microtiter plates. After 24 hours, the surface attached biofilms adhering to the bottom of the wells were stained with crystal-violet dye and the biofilm was quantified by measuring absorbance at 600 nm (OD600). […] Similar to inhibition, the surface attached biofilm after dispersion with DSHs was quantified with crystal-violet staining and absorbance measurement at 600 nm, except that for dispersion, biofilm was first grown for 1 day in just LB-media without any DSHs after which DSHs were added and plates were incubated for additional 24 hours followed by quantification (FIG. 29B).
Crystal violet (CV) based-biofilm inhibition assay. Inhibitory effect of all synthesized disaccharide hydrocarbons on biofilm formation of Pseudomonas aeruginosa (wild type PAO1) was determined by static biofilm inhibition assay using crystal violet staining. Overnight culture of PAO1 were sub cultured in LB media to OD600 of 0.01 and further the OD600 was allowed to reach ˜0.1. The bacterial sub-culture (200 μL) was then added into the wells of a microtiter plate. Predetermined concentrations of DSHs were added to respective wells containing sub culture by pipetting out fixed volume of sterile aqueous stock solutions (except DβL (7), SPOT, (15) and 2-ODαC (17), which were introduced as stocks prepared in H2O […] and EtOH (90:10) solutions). The microtiter plates were then wrapped in GLAD Press n′ Seal® (saran wrap) and further incubated under stationary conditions for 24 h at 37° C. After 24 h incubation, the culture media was discarded by pipetting carefully (without disrupting biofilm), the plate was then washed once with sterile water (200 μL) and allowed to dry at 37° C. for ˜30 mins. Microtiter plates were then stained with 0.1% aqueous solution of crystal violet (CV) (200 μL) at rt for ˜30 mins. Following this, the CV stain was removed and plate was again washed with sterile water (200 μL). Resultant CV stain in the well was then solubilized by adding 100 μL of 30% AcOH solution (in water) and mixing gently by pipetting.

For another assay, the system named is 1-day old PAO1 biofilm. Kind of assay: Crystal violet assay for dispersion of 1-day old biofilm, DSHs (Examples 2 and 4). As to conditions: 160 μM, another 24 h. Here is the method:
The effect that DSHs have on the adhesion of PAO1-EGFP on polystyrene surface (microtiter plate) was also examined. PAO1-EGFP is a P. aeruginosa strain that constitutively expresses green fluorescent protein. In the adhesion assays, PAO1-EGFP was grown in microtiter plate for 24-hours in LB-media with (160 μM) or without DSHs. After 24-hours, the fluorescent signal obtained from surface adhered PAO1-EGFP was measured. Percent reduction in fluorescence was calculated by comparing fluorescent signal from PAO1-EGFP grown in LB-media with the signal from wells that had DSHs (FIG. 29A). To study the effect of DSHs on biofilm formation, Pseudomonas aeruginosa (PAO1) was grown in LB-media with (160 μM) or without DSHs at 37° C. under static conditions within wells of microtiter plates. After 24 hours, the surface attached biofilms adhering to the bottom of the wells were stained with crystal-violet dye and the biofilm was quantified by measuring absorbance at 600 nm (OD600). The percent inhibition was calculated by comparing biofilm content of wells with no added agents (control) with the biofilm content from wells that had 160 μM of DSHs (FIG. 29A). Similar to inhibition, the surface attached biofilm after dispersion with DSHs was quantified with crystal-violet staining and absorbance measurement at 600 nm, except that for dispersion, biofilm was first grown for 1 day in just LB-media without any DSHs after which DSHs were added and plates were incubated for additional 24 hours followed by quantification (FIG. 29B).
Crystal violet based assay for quantifying dispersion of 1-day old PAO1 biofilms were Plate for set up similar to inhibition assay with a slight modification. Wells of the micro-titer plate was inoculated with (200 μL) bacterial subculture (PAO1 subculture OD600 ˜0.1). The plates were incubated at 37° C. for 24 hours to allow biofilm formation. After 24 hours, bacterial culture was gently pipetted out and appropriate volume of DSH were added followed by addition of fresh LB medium (200 μL). The microtiter plate was incubated for an additional 24 hours at 37° C., following which, similar to work up of inhibition assay, culture was removed, wells were washed and CV-dye was introduced, followed by washing and destaining with 30% AcOH solution in water and quantification at 600 nm. Here again, only the surface attached biofilm dispersed was reported by comparing wells with DSHs with wells with no agent.
Dose dependence assays for biofilm inhibition and dispersion. […] Both for biofilm inhibition and dispersion, predetermined volumes of DSH stocks were added to the assigned wells to span a concentration range between 0.5 μM-170 μM. Percent biofilm inhibition of dispersion was calculated by comparing to wells with no agent. The percent biofilm inhibition or dispersion was plotted versus concentration of DSHs. The linear values were logarithmically curve fitted using equation […]. The half maximal inhibitory concentration for both biofilm inhibition and dispersion (IC50 and DC50) were thus obtained.

Entries after “also recorded” stand apart in the source; their conditions may differ.

In the case of `CCCCCCCCCCC(CCCCCCCC)CO[C@@H]1O[C@H](CO)[C@@H](O[C@@H]2O[C@H](CO)[C@@H](O)[C@H](O)[C@H]2O)[C@H](O)[C@H]1O` (stereo partly drawn) [2-ODβC (16), 2-octyl-dodecyl-β-cellobioside], the “Swarming motility of rhlA mutant” value in assay [1] is “no apparent effect on rhlA”. For the same molecule, the “Swarming motility of wild type PAO1” value in the assay with wild type PAO1 (85 μM in soft agar, 24 h) is listed as “inhibited the swarming motility of wild type PAO1”. Moreover, the “Effect on PAO1 swarming” value in the assay with wild type PAO1 (concentration not given) was “did exhibit inhibition of PAO1 swarming; also recorded: inhibits the swarming activities of PAO1; also recorded: PAO1 swarming inhibitors”. Also, the “Inhibition of PAO1 biofilm formation (surface attached)” value in the assay with PAO1 biofilm (160 μM, 24 h, LB media, listed as 16: 2-ODβC, 160 µM) is given as “ineffective at biofilm inhibition”. The “Anti-biofilm activity (biofilm inhibition)” value with PAO1 biofilm (concentration not given) was “not effective at inhibiting the biofilm formation”. Besides, the “Dispersion of 24-h old PAO1 biofilm” value in the assay with 1-day old PAO1 biofilm is on record as “not active for biofilm inhibition or dispersion”.

Source of the values: patent US11357786B2, “Synthetic disugar hydrocarbons as natural analogs to control microbial behaviors” (Syracuse University, priority 2014, dated 2022).
